Experiments:
[1] = tested on: NCI-H23 lung adenocarcinoma (LUAD) cells; test: Spheroid growth inhibition (SGI) assay, NCI-H23; assay type: cell-based; conditions: NCI-H23 spheroids; 30 nM palbociclib, 300 nM PF-07220060, 300 nM PF-07104091; 14 days
Method: NCI-H1792 and NCI-H23 lung adenocarcinoma (LUAD) cells lines were obtained from ATCC and maintained in RPMI 1640 medium supplemented with 10% fetal bovine serum and penicillin-streptomycin as per ATCC guidelines. Cells were maintained in humidified incubator at 37° C. with 5% CO2.
Spheroid assays were performed in 96 well ultralow attachment plates (ULA-96U) from Nexcelom & Thermo Fisher Scientific. […] To aid spheroid formation, dispensed cells were centrifuged at 220×g for 6 minutes in the ultralow attachment plates and allowed to form compact spheroids for 4 days prior to the initiation of treatment. […] DMSO (0.01%) was used as the vehicle control. DMSO and all compounds were diluted in cell medium. Medium and compounds were replenished twice per week, with 3 and 4-day intervals. Replenishment was executed by aspirating 150 μL of medium per well without disturbing the spheroid and then adding the same volume of premixed medium/compound solution to spheroids. Spheroid diameter was quantified immediately following each medium change twice a week (on every 3rd or 4th day) throughout the duration of the assay.
Average diameters of tumor spheroids were plotted in GraphPad Prism 8 and the AUC calculated. AUC baseline was determined by the average tumor spheroid diameter at Day 0 in the vehicle (DMSO) controls. Spheroid growth inhibition, or SGI, was calculated as follows: SGI=(1−AUC treatment/AUC DMSO)×100%. SGI for all treatment arms was derived at the timepoint when the vehicle (DMSO) treated spheroids reach their maximal diameter (usually close to 1 mm but this can differ among cell lines); this corresponds to the last time point taken for the vehicle (DMSO) treated spheroids. SEM was calculated based on n=10 to 12 wells per test group.
Growth of lung adenocarcinoma multicellular tumor spheroids (MCTS) was monitored over time to assess: (i) amplitude of response (SGI) and (ii) duration of response to the CDK4 inhibitor PF-07220060 as a single agent, and in combination with the CDK2 inhibitor PF-07104091.

[2] = tested on: HCC1428 breast cancer model; test: In vivo efficacy, HR+/HER2− HCC1428 breast cancer model (Example 4); design: species or system NSG mice; conditions: HCC1428, Day 42; PO BID: PF-07104091 120 mpk, PF-07220060 60 mpk, PF-06873600 30 mpk, palbociclib 10 mpk; fulvestrant 10 mpk SC
Method: (§1) Female NSG mice (Jackson Lab) were subcutaneously implanted with fragment (27 mm^3 to 64 mm^3 size) into the dorsal region. All mice for HCC1428, MCF7 and ST941 PBR studies were supplemented with 8.5 μg/mL estradiol water (β-Estradiol Sigma-Aldrich, cat #E2758-5G) and gave ad libitum till end of study. For the in vivo efficacy studies, tumor volume and body weights were measured twice a week. Tumor volume was calculated using the [(Length×Width×Width)/2)] formula. TGI was calculated as 100*(1−ΔT/ΔC). The ΔC (ΔT) was obtained by subtracting the mean tumor burden in the vehicle (treated) group on the first day of treatment (Day 0) from the mean tumor burden in vehicle (treated) group on the assessment day. Statistical analysis was performed using ANCOVA when the mean tumor volume in vehicle treated mice reached tumor cutoff size.
The HCC1428 model was established by implanting passage 1 tumor fragments into recipient mice. To establish the HCC1428 donor mice, tumor cells (5×10^6 cell/mouse with 50% Cultrex® Basement Membrane Matrix) were subcutaneously implanted in female NSG mice. Once reaching a range of 700 to 800 mm^3, donor tumors were subsequently transplanted into secondary recipient mice for a study expansion. […] PF-07104091 (lot 022), PF-07220060 (lot CPo126812-01-SY-5700-01), PF-06873600 (lot 022) and PD-0332991 (lot GR08498) were administered (PO) BID (7 hr apart) while fulvestrant (lot 20160224-2) at 10 mg/kg, SC twice in the first week, then weekly afterwards. All mice received treatment continuously until Day 42. TGI was assessed on Day 42 post first dose.

ST941 PBR PDX model = test: In vivo efficacy, palbociclib-resistant ST941 PBR PDX model (Example 4); design: species or system NSG mice; conditions: ST941PBR, Day 28; PO BID: PF-07104091 120 mpk, PF-07220060 60 mpk, PF-06873600 30 mpk, palbociclib 10 mpk; fulvestrant 10 mpk SC
Method: as §1
We established model in house by continuous treatment of the ST941 PBR tumor bearing mice with PD-0332991 at 50 mg/kg, PO QD plus fulvestrant at 10 mg/kg, SC twice in the first week, then weekly thereafter. To propagate donors for the TGI study, tumors were transplanted to recipient mice. One week after the re-implantation, the recipient mice received continuous treatment with palbociclib plus fulvestrant (dosing schedule described above). After 1 to 2 serial in vivo propagation with the same treatment regimen, the resistant tumors in the range of 700 to 800 mm^3 were re-implanted for a study expansion. The remaining tumor fragments were viably frozen for future use.
The live donor mice were established by implanting ST941 PBR (p13) tumor fragments. Once reaching a range of 700 to 800 mm^3, the donor tumors were subsequently transplanted into secondary recipient mice for a study expansion. To maintain the resistant clones, the ST941 PBR tumor bearing mice were treated with PD-0332991 at 50 mg/kg, PO. QD plus fulvestrant at 10 mg/kg, SC twice in the first week, then weekly afterwards for 10 weeks. The treatment was initiated one week after the implant until day of randomization for study enrollment. […] PF-07104091 (lot 021), PF-07220060 (lot CPo126812-01-SY-5700-01), PF-06873600 (lot 022) and PD-0332991 (lot GR08498) were administered (PO) BID (7 hr apart) while fulvestrant (lot 20160224-2) at 10 mg/kg, SC twice in the first week, then weekly afterwards. All mice received treatment continuously until Day 28. TGI was assessed on Day 28 post first dose.

A549 = test: Combinatorial activity in LUAD cell line A549; assay type: cell-based; conditions: Homo sapiens; A549, WT; single agent; read-out: (nM) s.a.
Method: (§2) Combinatorial activity of PF-07104091 and PF-07220060 was assessed in LUADs as single agents (s.a.) or in combination.

CALU6 = test: Combinatorial activity in LUAD cell line CALU6; assay type: cell-based; conditions: Homo sapiens, Calu-6; CALU6, WT; single agent; read-out: (nM) s.a.
Method: as §2

## COCc1cc(C(=O)Nc2cc([C@H]3CC[C@@H](OC(=O)NC(C)C)C3)[nH]n2)n(C)n1 [PF-07104091, (1R,3S)-3-[3-({[3-(methoxymethyl)-1-methyl-1H-pyrazol-5-yl]carbonyl}amino)-1H-pyrazol-5-yl]cyclopentyl propan-2-ylcarbamate]
[1]
  SGI (%): 9%
[2]
  TGI %: 79%
ST941 PBR PDX model
  TGI %: 36%
A549
  IC50: 574 nM
CALU6
  IC50: 268 nM

## CC(C)n1c(C(C)(C)O)nc2c(F)cc(-c3nc(N[C@@H]4CCOC[C@H]4O)ncc3Cl)cc21 [PF-07220060, 1,5-anhydro-3-({5-chloro-4-[4-fluoro-2-(2-hydroxypropan-2-yl)-1-(propan-2-yl)-1H-benzimidazol-6-yl]pyrimidin-2-yl}amino)-2,3-dideoxy-D-threo-pentitol]
[1]
  SGI (%): 35%
[2]
  TGI %: 70%
ST941 PBR PDX model
  TGI %: 19%
A549
  IC50: 814 nM
CALU6
  IC50: 155 nM
